From patent publication US12540131B2 (Merck Sharp & Dohme LLC, priority 2019, dated 2026)

target: GST tagged truncated human mutant G2019S LRRK2 (Homo sapiens (Human), UniProt Q5S007, G2019S); assay: LRRK2 Km ATP LanthaScreen Assay; type: biochemical; conditions: G2019S LRRK2, 134 μM ATP (Km ATP), mean values
Summary of the method: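 Enzyme (GST-tagged, truncated) was preincubated with compound for 15 min at RT in 50 mM Tris pH 8.5, 10 mM MgCl2, 0.01% Brij-35, 1 mM EGTA, 2 mM DTT and 0.05 mM orthovanadate. Fluorescein-LRRKtide and 134 μM ATP (Km) were then added for 90 min. EDTA and Tb-anti-pERM antibody stopped the reaction; the TR-FRET 520/495 ratio gave 4-parameter IC50s, reported as mean pIC50.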

Sequence of GST tagged truncated human mutant G2019S LRRK2 (Q5S007 970-2527 G2019S): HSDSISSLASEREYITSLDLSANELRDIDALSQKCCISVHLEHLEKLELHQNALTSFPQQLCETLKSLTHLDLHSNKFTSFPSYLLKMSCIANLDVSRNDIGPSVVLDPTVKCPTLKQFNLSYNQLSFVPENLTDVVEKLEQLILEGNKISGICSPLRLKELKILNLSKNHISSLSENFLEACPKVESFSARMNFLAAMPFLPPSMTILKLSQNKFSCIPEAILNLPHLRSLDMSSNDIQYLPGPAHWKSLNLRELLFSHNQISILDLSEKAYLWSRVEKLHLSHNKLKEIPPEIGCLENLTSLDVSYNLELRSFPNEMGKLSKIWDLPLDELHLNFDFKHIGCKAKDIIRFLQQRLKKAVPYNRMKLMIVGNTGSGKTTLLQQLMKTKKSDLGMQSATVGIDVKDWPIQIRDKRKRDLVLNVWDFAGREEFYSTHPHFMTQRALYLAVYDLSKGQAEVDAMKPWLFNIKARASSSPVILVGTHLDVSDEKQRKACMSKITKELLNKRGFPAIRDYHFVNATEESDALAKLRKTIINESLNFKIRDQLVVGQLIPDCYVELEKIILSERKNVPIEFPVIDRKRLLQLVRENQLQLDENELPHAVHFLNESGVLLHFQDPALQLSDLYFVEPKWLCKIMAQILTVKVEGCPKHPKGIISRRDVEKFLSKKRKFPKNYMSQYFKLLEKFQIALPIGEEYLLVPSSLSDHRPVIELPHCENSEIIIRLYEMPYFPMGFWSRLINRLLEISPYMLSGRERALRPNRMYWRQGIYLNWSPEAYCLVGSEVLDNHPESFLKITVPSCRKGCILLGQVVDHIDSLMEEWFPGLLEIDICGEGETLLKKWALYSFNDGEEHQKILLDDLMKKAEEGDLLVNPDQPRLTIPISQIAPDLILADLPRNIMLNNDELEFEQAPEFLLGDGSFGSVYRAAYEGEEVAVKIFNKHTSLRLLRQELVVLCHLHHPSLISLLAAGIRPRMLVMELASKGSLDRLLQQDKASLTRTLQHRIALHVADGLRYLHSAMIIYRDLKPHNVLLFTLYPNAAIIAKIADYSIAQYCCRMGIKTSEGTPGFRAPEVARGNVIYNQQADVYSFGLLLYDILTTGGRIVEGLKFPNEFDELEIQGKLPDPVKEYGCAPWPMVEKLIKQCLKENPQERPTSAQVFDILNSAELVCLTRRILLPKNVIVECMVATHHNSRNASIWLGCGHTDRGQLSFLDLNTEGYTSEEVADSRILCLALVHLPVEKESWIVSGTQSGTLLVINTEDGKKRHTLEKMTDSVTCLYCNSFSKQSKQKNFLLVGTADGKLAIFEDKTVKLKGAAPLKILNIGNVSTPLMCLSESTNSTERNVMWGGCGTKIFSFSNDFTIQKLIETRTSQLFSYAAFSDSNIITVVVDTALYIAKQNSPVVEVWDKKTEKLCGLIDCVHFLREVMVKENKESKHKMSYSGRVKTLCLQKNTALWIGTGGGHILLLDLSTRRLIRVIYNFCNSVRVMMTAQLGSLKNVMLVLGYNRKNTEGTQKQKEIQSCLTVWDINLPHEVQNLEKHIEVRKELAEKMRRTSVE

`CC1(n2ncc(Nc3ncc4cc(Cl)c(C5(F)CCN(C6COC6)CC5)cc4n3)c2Cl)CC1` [Ex-4.24, 6-chloro-N-[5-chloro-1-(1-methylcyclopropyl)-1H-pyrazol-4-yl]-7-[4-fluoro-1-(oxetan-3-yl)piperidin-4-yl]quinazolin-2-amine] was tested. Which “LRRK2 pIC50” value did it give?
The value was greater than 9.20.

Which “LRRK2 pIC50” value does the source give for `FC1(c2cc3nc(Nc4cnn(C5CC5)c4Cl)ncc3cc2Cl)CCN(C2COC2)CC1` [Ex-4.31, 6-chloro-N-(5-chloro-1-cyclopropyl-1H-pyrazol-4-yl)-7-[4-fluoro-1-(oxetan-3-yl)piperidin-4-yl]quinazolin-2-amine] here?
The value was 8.23.

How did the “LRRK2 pIC50” value turn out when `CN1CCC(F)(c2cc3nc(Nc4cnn(C5CC5)c4Cl)ncc3cc2Cl)CC1` [Ex-4.36, 6-chloro-N-(5-chloro-1-cyclopropyl-1H-pyrazol-4-yl)-7-(4-fluoro-1-methylpiperidin-4-yl)quinazolin-2-amine] was run?
The value was 8.29.

With `Cc1cc(Nc2ncc3cc(Cl)c(C4CCN(C5COC5)CC4)cc3n2)sn1` [Ex-4.45, 6-chloro-N-(3-methyl-1,2-thiazol-5-yl)-7-[1-(oxetan-3-yl)piperidin-4-yl]quinazolin-2-amine] as the molecule, how does the “LRRK2 pIC50” value read?
The value was greater than 9.20.

With `Cc1c(Nc2ncc3cc(Cl)c(C4CCN(C5COC5)CC4)cc3n2)cnn1CCF` [Ex-4.54, 6-chloro-N-[1-(2-fluoroethyl)-5-methyl-1H-pyrazol-4-yl]-7-[1-(oxetan-3-yl)piperidin-4-yl]quinazolin-2-amine] as the molecule, how does the “LRRK2 pIC50” value read?
Its value is greater than 9.20.

How did the “LRRK2 pIC50” value turn out when `FC(F)Cn1ncc(Nc2ncc3cc(Cl)c(C4CCN(C5COC5)CC4)cc3n2)c1Cl` [Ex-4.55, 6-chloro-N-[5-chloro-1-(2,2-difluoroethyl)-1H-pyrazol-4-yl]-7-[1-(oxetan-3-yl)piperidin-4-yl]quinazolin-2-amine] was run?
The value was greater than 9.20.

Which “LRRK2 pIC50” value does the source give for `CC1(n2ncc(Nc3ncc4cc(Cl)c(C5CCN(C6COC6)CC5)cc4n3)c2Cl)CC1` [Ex-4.56, 6-chloro-N-[5-chloro-1-(1-methylcyclopropyl)-1H-pyrazol-4-yl]-7-[1-(oxetan-3-yl)piperidin-4-yl]quinazolin-2-amine] here?
Its value is greater than 9.20.

`[2H]C1(N2CCC(c3cc4nc(Nc5cnn(C6CC6)c5Cl)ncc4cc3Cl)CC2)COC1` [Ex-4.57, 6-chloro-N-(5-chloro-1-cyclopropyl-1H-pyrazol-4-yl)-7-(1-(oxetan-3-yl-3-d)piperidin-4-yl)quinazolin-2-amine] was tested. Which “LRRK2 pIC50” value did it give?
Its value is greater than 9.20.

For `[2H]C1([2H])OC([2H])([2H])C1([2H])N1CCC(c2cc3nc(Nc4cnn(CC(C)(C)O)c4Cl)ncc3cc2Cl)CC1` [Ex-4.58, 1-(5-chloro-4-((6-chloro-7-(1-(oxetan-3-yl-d5)piperidin-4-yl)quinazolin-2-yl)amino)-1H-pyrazol-1-yl)-2-methylpropan-2-ol], which “LRRK2 pIC50” value is on record?
Its value is greater than 9.20.

`[2H]C1(N2CCC(c3cc4nc(Nc5cnn(CC(C)(C)O)c5Cl)ncc4cc3Cl)CC2)COC1` [Ex-4.59, 1-(5-chloro-4-((6-chloro-7-(1-(oxetan-3-yl-3-d)piperidin-4-yl)quinazolin-2-yl)amino)-1H-pyrazol-1-yl)-2-methylpropan-2-ol] was tested. Which “LRRK2 pIC50” value did it give?
Its value is greater than 9.20.

For `CN1CCC(c2cc3nc(Nc4cnn(CC(C)(C)O)c4Cl)ncc3cc2Cl)CC1` [Ex-4.72, 1-(5-chloro-4-{[6-chloro-7-(1-methylpiperidin-4-yl)quinazolin-2-yl]amino}-1H-pyrazol-1-yl)-2-methylpropan-2-ol], which “LRRK2 pIC50” value is on record?
The value was 8.92.

How did the “LRRK2 pIC50” value turn out when `N#CC1(CN2CCC(c3cc4nc(Nc5cnn(C6CC6)c5Cl)ncc4cc3Cl)CC2)CC1` [Ex-4.78, 1-[(4-{6-chloro-2-[(5-chloro-1-cyclopropyl-1H-pyrazol-4-yl)amino]quinazolin-7-yl}piperidin-1-yl)methyl]cyclopropane-1-carbonitrile] was run?
The value was 7.95.

For `Cc1cc2cnc(Nc3cnn(CC(C)(C)O)c3Cl)nc2cc1C1CCN(C2COC2)CC1` [Ex-4.80, 1-[5-chloro-4-({6-methyl-7-[1-(oxetan-3-yl)piperidin-4-yl]quinazolin-2-yl}amino)-1H-pyrazol-1-yl]-2-methylpropan-2-ol], which “LRRK2 pIC50” value is on record?
The value was 8.87.

`Cc1cc2cnc(Nc3cnn(C4CC4)c3Cl)nc2cc1C1CCN(C2COC2)CC1` [Ex-4.84, N-(5-chloro-1-cyclopropyl-1H-pyrazol-4-yl)-6-methyl-7-[1-(oxetan-3-yl)piperidin-4-yl]quinazolin-2-amine] was tested. Which “LRRK2 pIC50” value did it give?
Its value is 9.01.

How did the “LRRK2 pIC50” value turn out when `CC(C)(O)Cn1ncc(Nc2ncc3cc(Cl)c(C4(F)CCN(C5COC5)CC4)cc3n2)c1Cl` [Ex-4.86, 1-[5-chloro-4-({6-chloro-7-[4-fluoro-1-(oxetan-3-yl)piperidin-4-yl]quinazolin-2-yl}amino)-1H-pyrazol-1-yl]-2-methylpropan-2-ol] was run?
The value was 8.09.

`Clc1cc2cnc(Nc3cnn(C4CCC4)c3Cl)nc2cc1C1CCNCC1` [Ex-4.89, 6-chloro-N-(5-chloro-1-cyclobutyl-1H-pyrazol-4-yl)-7-(piperidin-4-yl)quinazolin-2-amine] was tested. Which “LRRK2 pIC50” value did it give?
Its value is 9.13.

With `Clc1cc2cnc(Nc3cnn(CC4CC4)c3Cl)nc2cc1C1CCNCC1` [Ex-4.90, 6-chloro-N-[5-chloro-1-(cyclopropylmethyl)-1H-pyrazol-4-yl]-7-(piperidin-4-yl)quinazolin-2-amine] as the molecule, how does the “LRRK2 pIC50” value read?
The value was greater than 9.20.

With `FC(F)Cn1ncc(Nc2ncc3cc(Cl)c(C4CCNCC4)cc3n2)c1Cl` [Ex-4.93, 6-chloro-N-[5-chloro-1-(2,2-difluoroethyl)-1H-pyrazol-4-yl]-7-(piperidin-4-yl)quinazolin-2-amine] as the molecule, how does the “LRRK2 pIC50” value read?
The value was 8.70.

With `CC(C)(O)Cn1ncc(Nc2ncc3cc(Cl)c(C4CCNCC4)cc3n2)c1Cl` [Ex-4.94, 1-(5-chloro-4-{[6-chloro-7-(piperidin-4-yl)quinazolin-2-yl]amino}-1H-pyrazol-1-yl)-2-methylpropan-2-ol] as the molecule, how does the “LRRK2 pIC50” value read?
The value was 8.46.

With `N#CCCN1CCC(c2cc3nc(Nc4cnn(CC(F)F)c4Cl)ncc3cc2Cl)CC1` [Ex-4.95, 3-[4-(6-chloro-2-{[5-chloro-1-(2,2-difluoroethyl)-1H-pyrazol-4-yl]amino}quinazolin-7-yl)piperidin-1-yl]propanenitrile] as the molecule, how does the “LRRK2 pIC50” value read?
The value was greater than 9.20.

With `Cc1cc(Nc2ncc3cc(Cl)c(C4CCN(C5CS(=O)(=O)C5)CC4)cc3n2)sn1` [Ex-4.96, 3-(4-(6-chloro-2-((3-methylisothiazol-5-yl)amino)quinazolin-7-yl)piperidin-1-yl)thietane 1,1-dioxide] as the molecule, how does the “LRRK2 pIC50” value read?
Its value is 9.09.

With `CCN1CCC(c2cc3nc(Nc4cnn(CC(C)(C)O)c4Cl)ncc3cc2Cl)CC1` [Ex-4.97, 1-(5-chloro-4-{[6-chloro-7-(1-ethylpiperidin-4-yl)quinazolin-2-yl]amino}-1H-pyrazol-1-yl)-2-methylpropan-2-ol] as the molecule, how does the “LRRK2 pIC50” value read?
Its value is 8.57.

How did the “LRRK2 pIC50” value turn out when `CC1(N2CCC(c3cc4nc(Nc5cnn(CC(F)F)c5Cl)ncc4cc3Cl)CC2)COC1` [Ex-4.98, 6-chloro-N-[5-chloro-1-(2,2-difluoroethyl)-1H-pyrazol-4-yl]-7-[1-(3-methyloxetan-3-yl)piperidin-4-yl]quinazolin-2-amine] was run?
Its value is greater than 9.20.

Which “LRRK2 pIC50” value does the source give for `Clc1cc2cnc(Nc3cnn(C4CC4)c3Cl)nc2cc1C1CC2CCC(C1)N2C1COC1` (stereo not drawn) [Ex-4.112, cis or trans 6-chloro-N-(5-chloro-1-cyclopropyl-1H-pyrazol-4-yl)-7-(8-(oxetan-3-yl)-8-azabicyclo[3.2.1]octan-3-yl)quinazolin-2-amine] here?
The value was greater than 9.20.

For `Clc1cc2cnc(Nc3cnn(C4CC4)c3Cl)nc2cc1C1CC2COCC(C1)N2C1COC1` (stereo not drawn) [Ex-4.113, cis or trans 6-chloro-N-(5-chloro-1-cyclopropyl-1H-pyrazol-4-yl)-7-(9-(oxetan-3-yl)-3-oxa-9-azabicyclo[3.3.1]nonan-7-yl)quinazolin-2-amine], which “LRRK2 pIC50” value is on record?
Its value is 8.11.

`CC1CC(c2cc3nc(Nc4cnn(C5CC5)c4Cl)ncc3cc2Cl)CC(C)N1C1COC1` (stereo not drawn) [Ex-4.118, cis or trans 6-chloro-N-(5-chloro-1-cyclopropyl-1H-pyrazol-4-yl)-7-(2,6-dimethyl-1-(oxetan-3-yl)piperidin-4-yl)quinazolin-2-amine] was tested. Which “LRRK2 pIC50” value did it give?
The value was 8.46.

With `Clc1cc2cnc(Nc3cnn(C4CC4)c3Cl)nc2cc1C1CC2(C1)CN(C1COC1)C2` [Ex-4.119, 6-chloro-N-(5-chloro-1-cyclopropyl-1H-pyrazol-4-yl)-7-(2-(oxetan-3-yl)-2-azaspiro[3.3]heptan-6-yl)quinazolin-2-amine] as the molecule, how does the “LRRK2 pIC50” value read?
The value was 7.96.

Which “LRRK2 pIC50” value does the source give for `Cc1c(Nc2ncc3cc(Cl)c(C4CCN(C5CC[C@@H]6C[C@H]56)CC4)cc3n2)cnn1C1CC1` (stereo partly drawn) [Ex-4.172, 7-{1-[(1S,5R)-bicyclo[3.1.0]hexan-2-yl]piperidin-4-yl}-6-chloro-N-(1-cyclopropyl-5-methyl-1H-pyrazol-4-yl)quinazolin-2-amine] here?
The value was 7.53.

Which “LRRK2 pIC50” value does the source give for `Cc1c(Nc2ncc3cc(Cl)c(C4CCN(C[C@@H](O)c5ccccc5)CC4)cc3n2)cnn1C1CC1` [Ex-4.193, (1S)-2-(4-{6-chloro-2-[(1-cyclopropyl-5-methyl-1H-pyrazol-4-yl)amino]quinazolin-7-yl}piperidin-1-yl)-1-phenylethan-1-ol] here?
The value was 9.04.

With `Cc1c(Nc2ncc3cc(Cl)c(C4CCN(C[C@H](O)c5cccc(Cl)c5)CC4)cc3n2)cnn1C1CC1` [Ex-4.194, (1R)-2-(4-{6-chloro-2-[(1-cyclopropyl-5-methyl-1H-pyrazol-4-yl)amino]quinazolin-7-yl}piperidin-1-yl)-1-(3-chlorophenyl)ethan-1-ol] as the molecule, how does the “LRRK2 pIC50” value read?
The value was 8.28.

With `Cc1c(Nc2ncc3cc(Cl)c(C4CCN(C[C@H](O)c5cccc(F)c5)CC4)cc3n2)cnn1C1CC1` [Ex-4.195, (1R)-2-(4-{6-chloro-2-[(1-cyclopropyl-5-methyl-1H-pyrazol-4-yl)amino]quinazolin-7-yl}piperidin-1-yl)-1-(3-fluorophenyl)ethan-1-ol] as the molecule, how does the “LRRK2 pIC50” value read?
The value was 8.24.

With `Cc1c(Nc2ncc3cc(Cl)c(C4CCN(C[C@@H](O)c5cccc(F)c5)CC4)cc3n2)cnn1C1CC1` [Ex-4.196, (1S)-2-(4-{6-chloro-2-[(1-cyclopropyl-5-methyl-1H-pyrazol-4-yl)amino]quinazolin-7-yl}piperidin-1-yl)-1-(3-fluorophenyl)ethan-1-ol] as the molecule, how does the “LRRK2 pIC50” value read?
The value was 8.87.
